Results as given in patent US8445474B2 (Knopp Neurosciences, Inc., priority 2006, dated 2013).
Read-outs that look alike come from different tables or passages of the source.

Experiments:
[1] = in vivo; settings: male, beagle, dog
Procedure: (§1) Doses were administered orally by gavage and clinical observations were taken continuously following dosing: hourly for the first four hours, and then twice daily cage-side observations for the duration of the inter-dose or post-dose interval. Observations were made of clinical signs, mortality, injury and availability of food and water. Animals were fasted for 24 hr prior to dosing. Dogs in each group were exposed to only one drug, or the combination; each dose was administered only once, with a subsequent dose administered after a recovery period of 4 days.

[2] = system: dogs; settings: single oral dose, and above; cited from earlier work
[3] = system: rodents
[4] = Dissolution of exploratory combination capsules in simulated gastric fluid (SGF), chiral HPLC; format: physicochemical; settings: for Average Concentrations of the enantiomer, Experiments SGF (1) and SGF (2) / Concentration of the enantiomer in SGF (1) Vessel / Concentration of the enantiomer in SGF (2) Vessel: combination capsule in 10 mL SGF pH 1.2
Procedure: Drug Formulation. […] Normal phase, chiral HPLC was used for monitoring the release of R(+) pramipexole and S(−) pramipexole in simulated gastric fluid (SGF).
Dissolution Study. SGF (pH=1.2) was prepared by diluting 1 g of sodium chloride and 7 mL of concentrated HCl to 1 L with HPLC grade water. The dissolution experiment was run as follows: an exploratory combination capsule was placed in 10 mL of SGF and shaken under ambient conditions at 600 RPM for 60 minutes. Aliquots of 100 μL were pulled from the same sample vessel at various time points. The 100 μL samples of SGF solution were evaporated using a nitrogen bleed and heat and the residues were dissolved in the HPLC diluent and filtered through 0.45 μm syringe filters. […] This experiment was performed in duplicate (experiment numbers SGF (1) (see Table 4) and SGF (2) (see Table 5)) and the results are also provided in average values (see Table 6). The tables and figures below summarize the results from these experiments.

[5] = system: human subjects; settings: cited from earlier work
[6] = target: human cloned dopamine receptor D5 (Homo sapiens, UniProt P21918); settings: historic data; cited from earlier work
human cloned dopamine receptor D5, sequence (P21918 whole entry): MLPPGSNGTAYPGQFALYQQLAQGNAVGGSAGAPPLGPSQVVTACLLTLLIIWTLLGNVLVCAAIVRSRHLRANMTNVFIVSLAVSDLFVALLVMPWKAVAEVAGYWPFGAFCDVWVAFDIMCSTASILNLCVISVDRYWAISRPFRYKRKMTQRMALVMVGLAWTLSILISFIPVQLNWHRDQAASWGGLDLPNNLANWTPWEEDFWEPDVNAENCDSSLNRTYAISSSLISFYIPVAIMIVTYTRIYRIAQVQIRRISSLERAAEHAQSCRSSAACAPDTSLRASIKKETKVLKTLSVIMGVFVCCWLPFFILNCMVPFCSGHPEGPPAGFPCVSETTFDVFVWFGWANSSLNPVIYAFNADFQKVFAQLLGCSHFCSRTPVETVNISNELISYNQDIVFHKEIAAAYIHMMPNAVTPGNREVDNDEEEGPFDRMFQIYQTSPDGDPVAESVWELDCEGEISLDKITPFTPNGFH

[7] = system: rodents; settings: single oral dose, and above; cited from earlier work
[8] = system: male beagle dogs
Procedure: as §1

[9] = system: monkeys; settings: single oral dose; cited from earlier work
[10] = 4320 minutes, stored benchtop in clear vial
[11] = male, beagle, dog, in vivo, 1 study day
[12] = male, beagle, dog, in vivo, 8 study day
[13] = non-naïve male beagle dogs, single oral dose

Structure (SMILES): CCCN[C@H]1CCc2nc(N)sc2C1 [S(−) pramipexole]
- MTD at 4 days [1]: 4.2 µg/kg
- dose at which vomiting occurred [2]: ≥ 0.7 µg/kg
- human dose equivalent to rodent lethal dose ([3]; human equivalent): 7000 to 12000 µg/kg
- human dose equivalent to rodent lethal dose ([3]; rodents, in vivo): 500 to 850 mg
- Average Concentrations of the enantiomer, Experiments SGF (1) and SGF (2) ([4]; 3 minutes): 0 mg/mL
- Concentration of the enantiomer in SGF (1) Vessel ([4]; 3 minutes): 0 ng/mL
- Concentration of the enantiomer in SGF (2) Vessel ([4]; 3 minutes): 0 ng/mL
- Average Concentrations of the enantiomer, Experiments SGF (1) and SGF (2) ([4]; 4 minutes): 0 mg/mL
- Concentration of the enantiomer in SGF (1) Vessel ([4]; 4 minutes): 0 ng/mL
- Concentration of the enantiomer in SGF (2) Vessel ([4]; 4 minutes): 0 ng/mL
- Average Concentrations of the enantiomer, Experiments SGF (1) and SGF (2) ([4]; 6 minutes): 0 mg/mL
- Concentration of the enantiomer in SGF (1) Vessel ([4]; 6 minutes): 0 ng/mL
- Concentration of the enantiomer in SGF (2) Vessel ([4]; 6 minutes): 0 ng/mL
- Average Concentrations of the enantiomer, Experiments SGF (1) and SGF (2) ([4]; 8 minutes): 0 mg/mL
- Concentration of the enantiomer in SGF (1) Vessel ([4]; 8 minutes): 0 ng/mL
- Concentration of the enantiomer in SGF (2) Vessel ([4]; 8 minutes): 0 ng/mL
- Average Concentrations of the enantiomer, Experiments SGF (1) and SGF (2) ([4]; 10 minutes): 0.003489 mg/mL
- Concentration of the enantiomer in SGF (1) Vessel ([4]; 10 minutes): 6978 ng/mL
- Concentration of the enantiomer in SGF (2) Vessel ([4]; 10 minutes): 0 ng/mL
- Average Concentrations of the enantiomer, Experiments SGF (1) and SGF (2) ([4]; 11 minutes): 0.00738 mg/mL
- Concentration of the enantiomer in SGF (1) Vessel ([4]; 11 minutes): 8956 ng/mL
- Concentration of the enantiomer in SGF (2) Vessel ([4]; 11 minutes): 5803 ng/mL
- Average Concentrations of the enantiomer, Experiments SGF (1) and SGF (2) ([4]; 12 minutes): 0.009645 mg/mL
- Concentration of the enantiomer in SGF (1) Vessel ([4]; 12 minutes): 10830 ng/mL
- Concentration of the enantiomer in SGF (2) Vessel ([4]; 12 minutes): 8460 ng/mL
- Average Concentrations of the enantiomer, Experiments SGF (1) and SGF (2) ([4]; 14 minutes): 0.015 mg/mL
- Concentration of the enantiomer in SGF (1) Vessel ([4]; 14 minutes): 15340 ng/mL
- Concentration of the enantiomer in SGF (2) Vessel ([4]; 14 minutes): 14660 ng/mL
- Average Concentrations of the enantiomer, Experiments SGF (1) and SGF (2) ([4]; 15 minutes): 0.01769 mg/mL
- Concentration of the enantiomer in SGF (1) Vessel ([4]; 15 minutes): 17690 ng/mL
- Concentration of the enantiomer in SGF (2) Vessel ([4]; 15 minutes): 17700 ng/mL
- Average Concentrations of the enantiomer, Experiments SGF (1) and SGF (2) ([4]; 17 minutes): 0.02176 mg/mL
- Concentration of the enantiomer in SGF (1) Vessel ([4]; 17 minutes): 21570 ng/mL
- Concentration of the enantiomer in SGF (2) Vessel ([4]; 17 minutes): 21960 ng/mL
- Average Concentrations of the enantiomer, Experiments SGF (1) and SGF (2) ([4]; 18 minutes): 0.02294 mg/mL
- Concentration of the enantiomer in SGF (1) Vessel ([4]; 18 minutes): 22230 ng/mL
- Concentration of the enantiomer in SGF (2) Vessel ([4]; 18 minutes): 23650 ng/mL
- Average Concentrations of the enantiomer, Experiments SGF (1) and SGF (2) ([4]; 20 minutes): 0.028 mg/mL
- Concentration of the enantiomer in SGF (1) Vessel ([4]; 20 minutes): 27330 ng/mL
- Concentration of the enantiomer in SGF (2) Vessel ([4]; 20 minutes): 28670 ng/mL
- Average Concentrations of the enantiomer, Experiments SGF (1) and SGF (2) ([4]; 25 minutes): 0.03742 mg/mL
- Concentration of the enantiomer in SGF (1) Vessel ([4]; 25 minutes): 37640 ng/mL
- Concentration of the enantiomer in SGF (2) Vessel ([4]; 25 minutes): 37210 ng/mL
- Average Concentrations of the enantiomer, Experiments SGF (1) and SGF (2) ([4]; 30 minutes): 0.04566 mg/mL
- Concentration of the enantiomer in SGF (1) Vessel ([4]; 30 minutes): 48900 ng/mL
- Concentration of the enantiomer in SGF (2) Vessel ([4]; 30 minutes): 42420 ng/mL
- Average Concentrations of the enantiomer, Experiments SGF (1) and SGF (2) ([4]; 60 minutes): 0.05654 mg/mL
- Concentration of the enantiomer in SGF (1) Vessel ([4]; 60 minutes): 51970 ng/mL
- Concentration of the enantiomer in SGF (2) Vessel ([4]; 60 minutes): 61100 ng/mL
- Average Concentrations of the enantiomer, Experiments SGF (1) and SGF (2) [4, 10]: 0.09309 mg/mL
- Concentration of the enantiomer in SGF (1) Vessel [4, 10]: 93670 ng/mL
- Concentration of the enantiomer in SGF (2) Vessel [4, 10]: 92500 ng/mL
- course of release from the capsule ([4]; SGF pH 1.2, 60 minutes): did not go to completion after one hour
- dose shown to cause somnolence [5]: 1.5 mg
- initial, single doses not tolerated [5]: greater than 0.20 milligrams
- Ki [6]: > 50 µM
- doses at which deaths occurred [7]: 70000 to 105000 µg/kg
- human dose equivalent to dog MTD ([8]; 70 kg individual): 0.30 mg
- human dose equivalent to dog NOAEL ([8]; 70 kg individual): 0.05 mg
- human dose equivalent to dog NOAEL ([8]; human equivalent): 0.7 µg/kg
- Feces mucoid (animals affected/total) ([8]; male, beagle, dog, in vivo): 0/4
- Feces soft (animals affected/total) ([8]; male, beagle, dog, in vivo): 0/4
- Feces watery (animals affected/total) ([8]; male, beagle, dog, in vivo): 0/4
- Lacrimation (animals affected/total) ([8]; male, beagle, dog, in vivo): 0/4
- Pupils dilated (animals affected/total) ([8]; male, beagle, dog, in vivo): 0/4
- Skin warm to touch (animals affected/total) ([8]; male, beagle, dog, in vivo): 0/4
- Activity decreased (animals affected/total) [8, 11]: 3/4
- Convulsions-clonic (animals affected/total) [8, 11]: 0/4
- Emesis (animals affected/total) [8, 11]: 3/4
- Salivation (animals affected/total) [8, 11]: 0/4
- Tremors (animals affected/total) [8, 11]: 1/4
- Activity decreased (animals affected/total) [8, 12]: 0/4
- Emesis (animals affected/total) [8, 12]: 0/4
- Tremors (animals affected/total) [8, 12]: 0/4
- MTD [8, 13]: 7.5 µg/kg
- NOAEL [8, 13]: 1.25 µg/kg
- dose at which major excitation was displayed [9]: 3500 µg/kg
